According to US6677368B2, “4-aryl substituted indolinones” (Sugen, Inc., priority 2000, dated 2004):

What was measured:
Format in all cases: biochemical
PDGFR = biological target: T1, PDGFR (UniProt P09619); assay: PDGFR bioassay (ELISA, in vitro kinase activity); conditions: PDGFR-β expressing NIH 3T3 cell lysate, 20 μM ATP
T1 construct: PDGFR-β expressing NIH 3T3 cell lysate (SUGEN, Inc.)
Procedure: This assay is used to the in vitro kinase activity of PDGFR in an ELISA assay.
1. Corning 96-well ELISA plates
2. 28D4C10 monoclonal anti-PDGFR antibody (SUGEN, Inc.).
5. Blocking Buffer (same as for EGFR bioassay).
6. PDGFR-β expressing NIH 3T3 cell lysate (SUGEN, Inc.).
11. Kinase buffer phosphorylation mix: for 10 ml, mix 250 μl 1M TRIS, 200 μl 5M NaCl, 100 μl 1M MnCl2 and 501l 100 mM Triton X-100 in enough dH2O to make 10 ml.
12. NUNC 96-well V bottom polypropylene plates.
14. Rabbit polyclonal anti-phosphotyrosine serum (SUGEN, Inc.).
15. Goat anti-rabbit IgG peroxidase conjugate (Biosource Cat. No. ALI0404).
17. Hydrogen peroxide, 30% solution.
1. Coat Corning 96 well ELISA plates with […] 28D4C 10 in 100 μl PBS per well, hold overnight at 4° C.
2. Remove unbound 28D4C10 from wells by inverting plate to remove liquid. Wash 1× with dH2O. Pat the plate on a paper towel to remove excess liquid.
3. Add 150 μl of Blocking Buffer to each well. Incubate for 30 min. at room temperature with shaking.
4. Wash plate 3× with deionized water, then once with TBST. Pat plate on a paper towel to remove excess liquid and bubbles.
5. Dilute lysate in HNTG (10 μg lysate/100 μl HNTG).
6. Add 100 μl of diluted lysate to each well. Shake at room temperature for 60 min.
7. Wash plates as described in Step 4.
8. Add 80 μl working kinase buffer mix to ELISA plate containing captured PDGFR.
9. Dilute test compound 1:10 in TBS in 96-well polypropylene plates.
10. Add 10 μl diluted test compound to -ELISA plate. To control wells, add 10 μl TBS+10% DMSO. Incubate with shaking for 30 minutes at room temperature.
11. Add 10 μl ATP directly to all wells except negative control well (final well volume should be approximately 100 μl with 20 μM ATP in each well.) Incubate 30 minutes with shaking.
12. Stop reaction by adding 10 μl of EDTA solution to each well.
13. Wash 4× with deionized water, twice with TBST.
14. Add 100 μl anti-phosphotyrosine (1:3000 dilution in TBST) per well.
Incubate with shaking for 30-45 min. at room temperature.
16. Add 100 μl Biosource Goat anti-rabbit IgG peroxidase conjugate (1:2000 dilution in TBST) to each well. Incubate with shaking for 30 min. at room temperature.
18. Add 100 μl of ABTS/H2O2 solution to each well.
19. Incubate 10 to 30 minutes with shaking. Remove any bubbles.
20. If necessary stop reaction with the addition of 100 μl 0.2 M HCl per well.
21. Read assay on Dynatech MR7000 ELISA reader with test filter at 410 nM and reference filter at 630 nM.

SRC = biological target: T2, SRC (Homo sapiens, UniProt P12931); assay: Src transphosphorylation assay; conditions: recombinant human Src, poly(Glu-Tyr) substrate
T2 construct: purchased UBI 14-117
Procedure: Src Transphosphorylation Assay
This assay is used to screen for inhibitors of the tyrosine kinase Src.
1. Coating buffer: PBS containing sodium azide (0.2 mg/ml).
3. Wash buffer: PBS containing 0.05% v/v Tween 20 (PBS-TWEEN)
5. ATP (40 [M)+MgCl2 (80 mM) in distilled water.
6. MgCl2 (80 mM) in distilled water (for no ATP blanks).
7. Test compounds, 10 mM in DMSO.
8. Assay Buffer: 100 mM HEPES, pH 7.4, containing 2 mM DTT, 0.2 mM sodium orthovanadate and 0.2 mgs/ml BSA.
9. Partially purified recombinant human Src (UBI (14-117)
10. Anti-phosphotyrosine (SUGEN rabbit polyclonal anti-PY).
11. HRP-linked goat anti-rabbit Ig (Biosource International #6430)
12. HRP substrate ABTS or Pierce Peroxidase substrate.
13. Corning ELISA plates.
1. Coat plates with 100 μl of 20 μg/ml poly(Glu-Tyr) (Sigma Cat. No.P0275) containing 0.01% sodium azide. Hold overnight at 4° C.
2. Block with 1% BSA at 100 μl/well for one hour at room temperature.
3. Plate test compounds (10 mM in DMSO) at 2 ul/well on a Costar plate ready for dilution with dH2O and plating to reaction plates.
4. Dilute Src kinase 1:10,000 in Reaction Buffer, for 5 plates prepare 25 ml as follows: 2.5 mls 1M HEPES pH7.4 (stored sterile at 4° C.), 21.85 ml distilled water, 0.1 ml 5% BSA, 0.5 ml 10 mM sodium orthovanadate (stored sterile at 4° C.), 50 μl 1.0M DTT (stored frozen at […]), and 2.5 μl Src Kinase (stored frozen at −80° C.).
5. Add 48 μl of distilled water to the 2 ∥l of each compound in the dilution plate then add 25 μl/well of this to the reaction plate.
6. Add 50 μl of […] to each reaction buffer well and then 25 μl ATP-MgCl2/well (MgCl2 only to no ATP blanks). Incubate at room temperature for 15 minutes on plate shaker. Stop reaction by adding 25 μl of 0.5M EDTA to each well.
7. Wash 4× with PBS-TWEEN.
8. […] Incubate with continuous shaking at room temperature for one hour.
9. Wash plates 4× with PBS-TWEEN.
10. Add 100 μl HPP-linked Ig (1:5,000) in PBS-TWEEN containing 0.5% BSA, 0.025% Non-fat milk powder, 100 μM sodium orthovanadate. Incubate with shaking at room temperature for one hour.
11. Wash plates 4× with PBS-TWEEN and then once with PBS.
12. Develop plate using ABTS or other peroxidase substrate.

P38 = P38 (Homo sapiens, UniProt Q16539); assay: P38 kinase inhibition
Sequence of P38 (Q16539 whole entry): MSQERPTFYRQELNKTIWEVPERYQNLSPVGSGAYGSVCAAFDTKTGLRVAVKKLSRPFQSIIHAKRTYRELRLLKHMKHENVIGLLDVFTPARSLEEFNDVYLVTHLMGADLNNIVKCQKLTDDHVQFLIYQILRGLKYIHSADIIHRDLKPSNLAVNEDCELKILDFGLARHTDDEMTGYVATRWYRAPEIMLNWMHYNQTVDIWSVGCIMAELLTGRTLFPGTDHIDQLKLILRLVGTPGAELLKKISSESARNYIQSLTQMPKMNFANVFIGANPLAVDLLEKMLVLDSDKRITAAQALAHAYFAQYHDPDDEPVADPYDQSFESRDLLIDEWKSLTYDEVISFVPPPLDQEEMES

T2 sequence (P12931 whole entry): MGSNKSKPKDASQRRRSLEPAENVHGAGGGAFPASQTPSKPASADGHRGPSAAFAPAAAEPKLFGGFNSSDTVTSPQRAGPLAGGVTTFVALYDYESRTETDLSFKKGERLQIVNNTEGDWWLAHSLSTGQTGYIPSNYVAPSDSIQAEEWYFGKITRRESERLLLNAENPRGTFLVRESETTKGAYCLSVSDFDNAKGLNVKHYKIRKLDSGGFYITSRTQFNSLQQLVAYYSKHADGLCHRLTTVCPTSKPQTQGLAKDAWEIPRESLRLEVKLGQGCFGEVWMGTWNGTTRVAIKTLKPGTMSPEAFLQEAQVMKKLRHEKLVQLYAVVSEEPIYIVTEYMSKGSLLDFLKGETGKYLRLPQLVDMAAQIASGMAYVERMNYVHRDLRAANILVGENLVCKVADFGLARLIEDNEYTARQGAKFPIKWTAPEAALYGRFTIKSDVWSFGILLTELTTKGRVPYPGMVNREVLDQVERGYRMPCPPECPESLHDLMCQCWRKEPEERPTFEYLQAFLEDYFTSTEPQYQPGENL

SMILES | IC50 (PDGFR) [µM] | IC50 (SRC) [µM] | IC50 (P38) [µM]
Cc1[nH]c(/C=C2\C(=O)Nc3cccc(-c4ccc(F)cc4)c32)c(C)c1C(=O)N1CCN(C)CC1 [Example 4, 3-[3,5-Dimethyl-4-(4-methyl-piperazine-1-carbonyl)-1H-pyrrol-2-ylmethylene]-4-(4-fluoro-phenyl)-1,3-dihydro-indol-2-one] | 14.6 | > 20 | > 10
COc1ccc(-c2cccc3c2/C(=C/c2[nH]c(C)cc2C(=O)NCCN2CCCC2)C(=O)N3)cc1 [Example 41, 2-[4-(4-Methoxy-phenyl)-2-oxo-1,2-dihydro-indol-3-ylidenemethyl]-5-methyl-1H-pyrrole-3-carboxylic Acid (2-Pyrrolidin-1-yl-ethyl)-amide] | 3.84 | 5.42 | > 10
Cc1cc(C(=O)N2CC[C@H](N(C)C)C2)c(/C=C2\C(=O)Nc3cccc(-c4ccc(F)cc4)c32)[nH]1 [Example 10, 3-[3-((S)-3-Dimethylamino-pyrrolidine-1-carbonyl)-5-methyl-1H-pyrrol-2-ylmethylene]-4-(4-fluoro-phenyl)-1,3-dihydro-indol-2-one] | 11.9 | 1.82 | > 10
Cc1[nH]c(/C=C2\C(=O)Nc3cccc(-c4ccc(Br)cc4)c32)c(C)c1C(=O)N1CCN(C)CC1 [Example 53] | > 20 | 13.5 | > 10
Cc1cc(C(=O)N2C[C@@H](C)N[C@@H](C)C2)c(/C=C2\C(=O)Nc3cccc(-c4ccc(Cl)cc4)c32)[nH]1 [Example 27] | > 20 | 13.9 | > 10
Cc1[nH]c(/C=C2\C(=O)Nc3cccc(-c4cccc(F)c4)c32)c(C)c1C(=O)NCCn1ccnn1 [Example 15, 5-[4-(3-Fluoro-phenyl)-2-oxo-1,2-dihydro-indol-3-ylidenemethyl]-2,4-dimethyl-1H-pyrrole-3-carboxylic Acid (2-[1,2,3]Triazol-1-yl-ethyl)-amide] | 10.1 | 2.27 | 4.9
Cc1cc(C(=O)NCCn2ccnn2)c(/C=C2\C(=O)Nc3cccc(-c4cccc(Cl)c4)c32)[nH]1 [Example 34, 2-[4-(3-Chloro-phenyl)-2-oxo-1,2-dihydro-indol-3-ylidenemethyl]-5-methyl-1H-pyrrole-3-carboxylic Acid (2-[1,2,3]Triazol-1-yl-ethyl)-amide] | > 20 | 7.26 | > 10
COc1ccc(-c2cccc3c2/C(=C/c2[nH]c(C)c(C(=O)NCCN4CCCC4)c2C)C(=O)N3)cc1 [Example 38, 5-[4-(4-Methoxy-phenyl)-2-oxo-1,2-dihydro-indol-3-ylidenemethyl]-2,4-dimethyl-1H-pyrrole-3-carboxylic Acid (2-Pyrrolidin-1-yl-ethyl)-amide] | 2.19 | 1.25 | > 10
Cc1cc(C(=O)NCCN2CCCC2)c(/C=C2\C(=O)Nc3cccc(-c4ccc(Br)cc4)c32)[nH]1 [Example 58, 2-[4-(4-Bromo-phenyl)-2-oxo-1,2-dihydro-indol-3-ylidenemethyl]-5-methyl-1H-pyrrole-3-carboxylic Acid (2-Pyrrolidin-1-yl-ethyl)-amide] | 16.1 | 4.81 | > 10
COc1cccc(-c2cccc3c2/C(=C/c2[nH]c(C)c(C(=O)NCCn4ccnn4)c2C)C(=O)N3)c1 [Example 48, 5-[4-(3-Methoxy-phenyl)-2-oxo-1,2-dihydro-indol-3-ylidenemethyl]-2,4-dimethyl-1H-pyrrole-3-carboxylic Acid (2-[1,2,3]Triazol-1-yl-ethyl)-amide] | 8.39 | 3.8 | > 10
COc1cccc(-c2cccc3c2/C(=C/c2[nH]c(C)c(C(=O)NCCN(C(C)C)C(C)C)c2C)C(=O)N3)c1 [Example 52, 5-[4-(3-Methoxy-phenyl)-2-oxo-1,2-dihydro-indol-3-ylidenemethyl]-2,4-dimethyl-1H-pyrrole-3-carboxylic Acid (2-Diisopropylamino-ethyl)-amide] | 1.54 | 0.54 | > 10
CCN(CC)CCNC(=O)c1c(C)[nH]c(/C=C2\C(=O)Nc3cccc(-c4ccccc4)c32)c1C [Example 3, 2,4-Dimethyl-5-(2-oxo-4-phenyl-1,2-dihydro-indol-3-ylidenemethyl)-1H-pyrrole-3-carboxylic Acid (2-Diethylamino-ethyl)-amide] | 0.44 | 1.02 | > 10
CCN(CC)CCNC(=O)c1c(C)[nH]c(/C=C2\C(=O)Nc3cccc(-c4cccc(Cl)c4)c32)c1C [Example 29, 5-[4-(3-Chloro-phenyl)-2-oxo-1,2-dihydro-indol-3-ylidenemethyl]-2,4-dimethyl-1H-pyrrole-3-carboxylic Acid (2-Diethylamino-ethyl)-amide] | 0.69 | 1.25 | > 10
Cc1[nH]c(/C=C2\C(=O)Nc3cccc(-c4ccc(Br)cc4)c32)c(C)c1C(=O)NCCN(C(C)C)C(C)C [Example 60, 5-[4-(4-Bromo-phenyl)-2-oxo-1,2-dihydro-indol-3-ylidenemethyl]-2,4-dimethyl-1H-pyrrole-3-carboxylic Acid (2-Diisopropylamino-ethyl)-amide] | 2.37 | 2.01 | 7.9
Cc1cc(C(=O)N2CC[C@H](N(C)C)C2)c(/C=C2\C(=O)Nc3cccc(-c4cccc(Cl)c4)c32)[nH]1 [Example 32, 4-(3-Chloro-phenyl)-3-[3-((S)-3-dimethylamino-pyrrolidine-1-carbonyl)-5-methyl-1H-pyrrol-2-ylmethylene]-1,3-dihydro-indol-2-one] | 11.6 | 5.37 | > 10
Cc1cc(C(=O)N2CC[C@@H](N(C)C)C2)c(/C=C2\C(=O)Nc3cccc(-c4ccc(Cl)cc4)c32)[nH]1 [Example 25, 4-(4-Chloro-phenyl)-3-[3-((R)-3-dimethylamino-pyrrolidine-1-carbonyl)-5-methyl-1H-pyrrol-2-ylmethylene]-1,3-dihydro-indol-2-one] | 11.7 | 9.86 | > 10
